Laboratory results from US10010576B2, “Method of treatment” (Hexima Limited, priority 2014, dated 2018).

Columns and labels:
[1] = tested on: C. albicans; assay: Antifungal growth inhibition assay in 96 well microtitre plates (A595); type: cell-based, Candida albicans
Protocol: (§1) The inhibitory effects of the plant defensins on the growth of Trichophyton rubrum, T. interdigitale, Microsporum fulvum and C. albicans (obtained from the National Mycology Reference Centre, South Australia Pathology at the Women's and Children's Hospital, Adelaide, Australia) are measured essentially as described by Broekaert et al. (1990) FEMS Microbiol Lett 69:55-59. Spores of T. rubrum, T. interdigitale and M. fulvum are isolated from sporulating fungus growing on 1⁄2 strength Sabouraud dextrose agar (SDA). Spores were removed from the plates by the addition of 1⁄2 strength potato dextrose broth (PDB). C. albicans cells are grown in Yeast Peptone Broth (YPD) for 16 h. Spore and cell concentrations are measured using a hemocytometer. Antifungal assays are conducted in 96 well microtitre plates essentially as herein described. Wells are loaded with 20 μm L of filter sterilized (0.22 μm syringe filter, Millipore) defensin (10× stock for each final concentration) or water and 80 μm L of 5×10^4 spores/mL (T. rubrum, T. interdigitale, M. fulvum) or 5,000 cells/mL (C. albicans) in 1⁄2 strength PDB. The plates are incubated at 30° C. Fungal growth is assayed by measuring optical density at 595 nm ([…]) using a microtitre plate reader (SpectraMax Pro M2; Molecular Devices. Growth is allowed to proceed until the optical density (OD) of the fungus in the absence of any test defensin reached an OD of 0.2. Each test is performed in duplicate.

[2] = tested on: Microsporum fulvum; assay: as above; type: cell-based
Protocol: as §1

[3] = tested on: Trichophyton rubrum; assay: as above; type: cell-based
Protocol: as §1

[4] = tested on: Trichophyton rubrum, T. interdigitale, Microsporum fulvum and C. albicans; assay: Inhibition assays, summary across the range of fungal pathogens; type: cell-based; conditions: summary of Table 3
Protocol: as §1

[5] = tested on: Human monocytic lymphoma (U937) cells; type: cell-based
Protocol: Human monocytic lymphoma (U937) cells are cultured in RPMI-1640 medium. All culture media are supplemented with 5-10% v/v fetal calf serum, 100 U/ml of penicillin, and 100 μg/ml of streptomycin. Cell lines are cultured at 37° C. in a humidified atmosphere containing 5% v/v CO2. Adherent cell lines are detached from the flask by adding a mixture containing 0.25% v/v trypsin and […] EDTA. A flow cytometry-based propidium iodide (PI) uptake assay is performed to analyze the ability of plant defensins to permeabilize U937 cells (essentially as described in Poon et al, 2014). Briefly, cells are suspended to 1×10^6 cells/ml in 0.1% v/v BSA/RPMI-1640 and incubated with plant defensins (10 μM) at 37° C. for 30 min Samples are added to PBS containing a final concentration of 1 μg/ml PI and placed on ice. Samples are then analyzed immediately using the BD FACSCanto II Flow Cytometer and BD FACSDiva software v6.1.1. The resultant flow cytometry data is analyzed using FlowJo software v8.8.6. Cells are gated appropriately based on forward scatter and side scatter and cell permeabilization is defined by PI-positive staining.

[6] = tested on: T. interdigitale; assay: Antifungal growth inhibition assay in 96 well microtitre plates (A595); type: cell-based, Trichophyton interdigitale
Protocol: as §1

[7] = Penetration through human nails (nail adapter, wetted cotton bud receptor, RP-HPLC); type: in vitro ADME
Protocol: Penetration of NaD1 through human nails was measured according to the method of Hui et al. (2002) J Pharm Sci 91(1):189-195. Human toenails were obtained from ScienceCare (USA) and washed with phosphate buffered saline (details, PBS) before being placed on a kimwipe that had been soaked in PBS for 3 h to rehydrate the nail. […]
The cotton bud in contact with the underside of the nail was removed after 24 h and every 24 h following. Protein that had passed through the nail was recovered from the cotton bud by washing twice with 500 μL of 0.1% v/v trifluoroacetic acid. Recovered protein was quantified using RP-HPLC.

[8] = Day 3, 10 uL of 10% solution, 0.8 cm^2, daily application
[9] = Day 6, 10 uL of 10% solution, 0.8 cm^2, daily application
[10] = Day 9, 10 uL of 10% solution, 0.8 cm^2, daily application
[11] = Day 12, 10 uL of 10% solution, 0.8 cm^2, daily application
[12] = Day 15, 10 uL of 10% solution, 0.8 cm^2, daily application

Compound: HXL001: Class I plant defensin from Zea mays, SEQ ID NO:4 (RHCLSQSHRFKGLCMSSNNCANVCQTENFPGGECKAEGATRKCFCKKIC; HXL001 Zea mays)
- IC50 against C. albicans [1]: 35 µg/mL
- IC50 against M. fulvum [2]: >100 µg/mL
- IC50 against T. rubrum [3]: >100 µg/mL
- Antifungal activity across the range of fungal pathogens [4]: did not display any activity at the concentrations tested
- Cells permeabilized (PI-positive) [5]: less than 2%

Compound: HXP4: Artificial defensin variant, Loop1B from a Class I defensin replaces that of a Solanaceous Class II defensin, SEQ ID NO:21 (RECKTESHRFKGPCITKPPCRKACISEKFTDGHCSKILRRCLCTKPC; HXP4)
- Cells permeabilized (PI-positive) [5]: 13%

Compound: HXL003: Class I plant defensin from Triticum aestivum, SEQ ID NO:6 (ARDCTSQSHKFVGLCLSDRNCASVCLTEYFTGGKCDHRRCVCTKGC; HXL003 Triticum aestivum)
- IC50 against C. albicans [1]: >100 µg/mL
- IC50 against M. fulvum [2]: >100 µg/mL

Compound: HXL035: Class I plant defensin from Picramnia pentandra, SEQ ID NO:2 (KVCTKPSKFFKGLCGFDRDCTVACKKEGLASGFCQNKGFFNVVCVCRKPC; HXL035 Picramnia pentandra)
- IC50 against C. albicans [1]: 18 µg/mL
- IC50 against M. fulvum [2]: 2 µg/mL
- IC50 against T. rubrum [3]: 2 µg/mL
- IC50 against T. interdigitale [6]: 1 µg/mL
- Antifungal activity across the range of fungal pathogens [4]: the most effective plant defensins across the range of fungal pathogens

Compound: HXL012: Class I plant defensin from Amaranthus retroflexus, SEQ ID NO:10 (RMCKAPSKLFRGMCGIRDSNCDSVCRAEGMAAGDCHGLRRRCICSRPC; HXL012 Amaranthus retroflexus)
- IC50 against C. albicans [1]: 42 µg/mL
- IC50 against M. fulvum [2]: 18 µg/mL
- IC50 against T. rubrum [3]: 2 µg/mL
- IC50 against T. interdigitale [6]: 2 µg/mL
- Nail penetration [7]: did not penetrate the nail
- Antifungal activity across the range of fungal pathogens [4]: intermediate activity
- Cells permeabilized (PI-positive) [5]: less than 2%

Compound: Cc1cc(C2CCCCC2)n(O)c(=O)c1 [Ciclopirox, ciclopirox]
- Cumulative amount through nail ([7]; human, 3 day, 10 %): 1 µg
- Cumulative amount through nail, percent (line without head; fits percent of cumulative applied dose) ([7]; human, 3 day, 10 %): 0.03%
- Cumulative amount through nail ([7]; human, 6 day, 10 %): 2 µg
- Cumulative amount through nail, percent (line without head; fits percent of cumulative applied dose) ([7]; human, 6 day, 10 %): 0.03%
- Cumulative amount through nail ([7]; human, 9 day, 10 %): 4 µg
- Cumulative amount through nail, percent (line without head; fits percent of cumulative applied dose) ([7]; human, 9 day, 10 %): 0.04%
- Cumulative amount through nail ([7]; human, 12 day, 10 %): 6 µg
- Cumulative amount through nail, percent (line without head; fits percent of cumulative applied dose) ([7]; human, 12 day, 10 %): 0.05%
- Cumulative amount through nail ([7]; human, 15 day, 10 %): 9 µg
- Cumulative amount through nail, percent (line without head; fits percent of cumulative applied dose) ([7]; human, 15 day, 10 %): 0.06%

Compound: C=C1CCN([C@H](C)[C@](O)(Cn2cncn2)c2ccc(F)cc2F)CC1 [Efinaconazole, efinaconazole]
- Cumulative amount through nail ([7]; human, 1 day, 10 %): 0.4 µg
- Cumulative amount through nail, percent (line without head; fits percent of applied dose) ([7]; human, 1 day, 10 %): 0.2%
- Cumulative amount through nail ([7]; human, 2 day, 10 %): 0.7 µg
- Cumulative amount through nail, percent (line without head; fits percent of applied dose) ([7]; human, 2 day, 10 %): 0.4%
- Cumulative amount through nail ([7]; human, 3 day, 10 %): 1.3 µg
- Cumulative amount through nail, percent (line without head; fits percent of applied dose) ([7]; human, 3 day, 10 %): 0.7%
- Cumulative amount through nail ([7]; human, 4 day, 10 %): 1.6 µg
- Cumulative amount through nail, percent (line without head; fits percent of applied dose) ([7]; human, 4 day, 10 %): 0.8%
- Cumulative amount through nail ([7]; human, 6 day, 10 %): 2.6 µg
- Cumulative amount through nail, percent (line without head; fits percent of applied dose) ([7]; human, 6 day, 10 %): 1.3%
- Cumulative amount through nail ([7]; human, 9 day, 10 %): 4.0 µg
- Cumulative amount through nail, percent (line without head; fits percent of applied dose) ([7]; human, 9 day, 10 %): 2.0%
- Cumulative amount through nail ([7]; human, 12 day, 10 %): 5.4 µg
- Cumulative amount through nail, percent (line without head; fits percent of applied dose) ([7]; human, 12 day, 10 %): 2.7%
- Cumulative amount through nail ([7]; human, 15 day, 10 %): 6.5 µg
- Cumulative amount through nail, percent (line without head; fits percent of applied dose) ([7]; human, 15 day, 10 %): 3.3%

Compound: HXL015: Class I plant defensin from Oryza sativa, SEQ ID NO:12 (RHCLSQSHRFKGMCVSSNNCANVCRTESFPDGECKSHGLERKCFCKKVC; HXL015 Oryza sativa)
- IC50 against M. fulvum [2]: 12.5 µg/mL
- IC50 against T. rubrum [3]: 10 µg/mL
- IC50 against T. interdigitale [6]: 3.5 µg/mL
- Antifungal activity across the range of fungal pathogens [4]: intermediate activity

Compound: HXL013: Class I plant defensin from Glycine max, SEQ ID NO:11 (KDCLTRRHGFQGRCLFDRQCAHVCRSDGFIGGQCRGPLRKCFCSRPC; HXL013 Glycine max)
- IC50 against C. albicans [1]: 20 µg/mL
- IC50 against M. fulvum [2]: 5.5 µg/mL
- IC50 against T. rubrum [3]: 22 µg/mL
- Antifungal activity across the range of fungal pathogens [4]: intermediate activity
- Cells permeabilized (PI-positive) [5]: 5%

Compound: OB1OCc2cc(F)ccc21 [Tavaborole, tavaborole]
- Cumulative amount through nail [7, 8]: 60 µg
- Cumulative amount through nail, percent (line without head; fits percent of cumulative applied dose) [7, 8]: 2.0%
- Cumulative amount through nail [7, 9]: 220 µg
- Cumulative amount through nail, percent (line without head; fits percent of cumulative applied dose) [7, 9]: 3.7%
- Cumulative amount through nail [7, 10]: 610 µg
- Cumulative amount through nail, percent (line without head; fits percent of cumulative applied dose) [7, 10]: 6.8%
- Cumulative amount through nail [7, 11]: 1280 µg
- Cumulative amount through nail, percent (line without head; fits percent of cumulative applied dose) [7, 11]: 10.7%
- Cumulative amount through nail [7, 12]: 2240 µg
- Cumulative amount through nail, percent (line without head; fits percent of cumulative applied dose) [7, 12]: 14.9%

Compound: HXL009: Class I plant defensin from Zea mays, SEQ ID NO:9 (Table 1) (TVCMRHNNFYHGPCMSNKDCANSCVQHNLGVGGYCRGKIPFNKECMCTFEC; HXL009 Zea mays)
- IC50 against C. albicans [1]: >100 µg/mL
- IC50 against M. fulvum [2]: >100 µg/mL
- Antifungal activity across the range of fungal pathogens [4]: did not display any activity at the concentrations tested
- Cells permeabilized (PI-positive) [5]: less than 2%

Compound: HXL005: Class I plant defensin from Taraxcum kok-saghyz, SEQ ID NO:8 (Table 1) (KMCQTTSHAFSCVNDSGCSGSCEKQGFASGKCDGVRRRCTCYKKC; HXL005 Taraxcum kok-saghyz)
- IC50 against C. albicans [1]: 22 µg/mL
- IC50 against M. fulvum [2]: 5 µg/mL
- IC50 against T. rubrum [3]: 3 µg/mL
- IC50 against T. interdigitale [6]: 3.5 µg/mL
- Antifungal activity across the range of fungal pathogens [4]: the most effective plant defensins across the range of fungal pathogens
- Cells permeabilized (PI-positive) [5]: ~25%

Compound: HXL002: Class I plant defensin from Triticum aestivum, SEQ ID NO:5 (RDCLSQSHKFKGACLSSSNCAAVCRTENFPDGECHTHNFARKCFCKRAC; HXL002 Triticum aestivum)
- IC50 against C. albicans [1]: 35 µg/mL
- Inhibition of C. albicans [1]: very poor inhibitors
- IC50 against M. fulvum [2]: 50 µg/mL
- Inhibition of M. fulvum [2]: very poor inhibitors
- Cells permeabilized (PI-positive) [5]: less than 2%
